Results as given in ChEMBL document CHEMBL3351879, “Isolation, structure elucidation, relative LC-MS response, and in vitro toxicity of azaspiracids from the dinoflagellate Azadinium spinosum” (J Nat Prod, 2014).

Columns and labels:
Assay type in all cases: functional, cell-based
[1] = Cytotoxicity against human Jurkat E6-1 cells assessed as cell viability after 24 hrs by MTS assay
[2] = Cytotoxicity against human Jurkat E6-1 cells assessed as cell viability after 48 hrs by MTS assay
[3] = Cytotoxicity against human Jurkat E6-1 cells assessed as cell viability after 72 hrs by MTS assay

Structure (SMILES) | EC50 [1] [nM] | EC50 [2] [nM] | EC50 [3] [nM]
C=C(C[C@@]12C[C@@H](C)C[C@@H](O1)[C@H]1O[C@]3(C[C@H]1O2)NC[C@H](C)C[C@@H]3C)[C@H]1O[C@@](O)([C@H](O)[C@@H]2CC[C@@H](C/C=C/CC/C=C/CCC(=O)O)O2)[C@H](C)C[C@@H]1C | 3.3 | 5.9 | 6.4
C=C(C[C@@]12C[C@@H](C)C[C@@H](O1)[C@H]1O[C@]3(C[C@H]1O2)NC[C@H](C)C[C@@H]3C)[C@H]1O[C@@](O)([C@H](O)[C@@H]2C[C@H]3O[C@@]4(CC[C@]5(CC=C[C@@H](CCC(=O)O)O5)O4)[C@H](C)C[C@H]3O2)[C@H](C)C[C@@H]1C | 0.23 | 0.18 | 0.2
C=C(C[C@]12C[C@@H](C)C[C@H](O1)[C@H]1O[C@]3(C[C@H]1O2)NC[C@H](C)C[C@@H]3C)[C@H]1O[C@@](O)([C@H](O)[C@@H]2C[C@H]3O[C@@]4(CC[C@]5(CC=C[C@@H](/C=C/CCC(=O)O)O5)O4)[C@H](C)C[C@H]3O2)[C@H](C)C[C@@H]1C | 0.96 | 1.1 | 1.3
